Legend:
Assay type in all cases: cell-based
[1] = system: hBmal1 gene; experiment: Clock gene expression regulation, hBmal1 expressed amount by RT-PCR in cultured human skin fibroblast cells; details: for Relative expressed amount of hBmal1 (16 hours): 50 ppm test substance, 16 hours after addition, relative to RPLP0, control 0.48, *p < 0.05; for expressed amount of hBmal1 gene in comparison with the control: 50 ppm, 16 hours, Dunnett's test one-sided 5%
Experimental: (§1) The results above confirm that in an evaluation system using cultured human skin fibroblast cells, clock genes acquire a circadian rhythm when stimulated with cortisol. Because it is desirable to evaluate during a time period when the expressed amount is high, the clock gene expression regulation effects of the test substances were evaluated based on the expressed amount of the clock gene 16 hours after stimulation in the case of hBmal1 and 2 hours after stimulation in the case of hPer1.
(§2) Fibroblasts cells from normal human skin (Cell Application, Inc.) were seeded by methods similar to those used above, each chemical was added on the 6th day of culture to a concentration of 50 ppm, and the cells were sampled after 2 hours and after 16 hours. The same amount of ethanol was added instead of the test substance as a control. RNA was extracted from the cells with a commercial RNA extraction kit, and the expressed amounts of the hBmal1 and hPer1 genes were measured by RT-PCR using a commercial PCR primer (Perfect Real Time Primer, Takara Bio). Similarly, the expressed amount of the housekeeping gene RPLP0 was assayed and used as an internal standard to calculate the expressed amounts of the target genes relative to the expressed amount of RPLP0. Dunnett's multiple comparison test was performed on the obtained values, and an effect was recognized if there was a significant difference with a one-sided 5% risk factor in comparison with the control.

[2] = system: hPer1 gene; experiment: Clock gene expression regulation, hPer1 expressed amount by RT-PCR in cultured human skin fibroblast cells; details: for Relative expressed amount of hPer1 (2 hours): 50 ppm test substance, 2 hours after addition, relative to RPLP0, control 0.24, *p < 0.05; for expressed amount of hPer1 gene in comparison with the control: 50 ppm, 2 hours, Dunnett's test one-sided 5%
Experimental: as §1, §2

[3] = system: hPer1 gene; experiment: Induction of circadian rhythm of hPer1 expression with cortisol in cultured human skin fibroblast cells; details: 50 ng/ml cortisol, 2 hours of treatment, cells sampled over time (FIG. 2)
Experimental: (§3) It was confirmed that a circadian rhythm of clock gene expression can be induced in a system using cultured human skin fibroblast cells.
(§4) As the cultured human fibroblast cells, fibroblast cells from normal human skin were purchased (Cell Application, Inc.) and used in the experiments. They were seeded on DMEM medium with 10% FBS, 20 mM HEPES, Glutamax and an antibacterial agent added thereto, and cultured at 37° C. in 5% CO2. On the 6th day of culture, 50 ng/ml of cortisol was added, and after 2 hours of treatment the cells were sampled over time. RNA was extracted from the cells with a commercial RNA extraction kit, and the expressed amounts of the hBmal1 and hPer1 genes were measured by RT-PCR using a commercial PCR primer (Perfect Real Time Primer, Takara Bio). Similarly, the expressed amount of the housekeeping gene RPLP0 was assayed and used as an internal standard to calculate the expressed amounts of the target genes relative to the expressed amount of RPLP0.
(§5) In the body, cortisol and other glucocorticoids are involved in regulating the biological clock in peripheral tissue and the like, and it is thought that blood concentrations of cortisol rise at the time of awakening in the morning, resetting the biological clock. […]

[4] = system: hBmal1 gene; experiment: Induction of circadian rhythm of hBmal1 expression with cortisol in cultured human skin fibroblast cells; details: 50 ng/ml cortisol, 2 hours of treatment, cells sampled over time (FIG. 2)
Experimental: as §3, §4, §5

For `C=C1CC[C@H]2O[C@]2(C)CC[C@@H]2[C@@H]1CC2(C)C` [Caryophyllene oxide, (1R,4R,6R,10S)-4,12,12-trimethyl-9-methylene-5-oxatricyclo[8.2.0.04.6]dodecane], the “Relative expressed amount of hBmal1 (16 hours)” value [1] was 3.50*, the “expressed amount of hBmal1 gene in comparison with the control” value (“expressed amount of hBmal1 gene” for short) [1] was “significantly increased” and the “Relative expressed amount of hPer1 (2 hours)” value [2] was 2.29*. For the same compound, the “expressed amount of hPer1 gene in comparison with the control” value (from here on “expressed amount of hPer1 gene”) [2] was “significantly increased”.

With `COC(=O)c1ccccc1N` [Methyl 2-aminobenzoate] the “Relative expressed amount of hBmal1 (16 hours)” value [1] was 1.19*, the “expressed amount of hBmal1 gene” value [1] was “significantly increased” and the “Relative expressed amount of hPer1 (2 hours)” value [2] was 0.64*. For the same compound, the “expressed amount of hPer1 gene” value [2] was “significantly increased”.

For `CNc1ccccc1C(=O)OC` [Methyl 2-methylaminobenzoate], the “Relative expressed amount of hBmal1 (16 hours)” value [1] was 2.52*, the “expressed amount of hBmal1 gene” value [1] was “significantly increased” and the “Relative expressed amount of hPer1 (2 hours)” value [2] was 0.64*. The “expressed amount of hPer1 gene” value [2] was “significantly increased”.

`COC(=O)c1ccccc1C` [Methyl 2-methylbenzoate, methyl 2-methylbenzoate] was tested, and the “Relative expressed amount of hBmal1 (16 hours)” value [1] was 1.01*, the “expressed amount of hBmal1 gene” value [1] was “significantly increased” and the “Relative expressed amount of hPer1 (2 hours)” value [2] was 0.44*. The “expressed amount of hPer1 gene” value [2] was “significantly increased”.

In the case of `C[C@]12CCC(=O)C=C1CC[C@@H]1[C@@H]2[C@@H](O)C[C@@]2(C)[C@H]1CC[C@]2(O)C(=O)CO` [cortisol], the “cycle of circadian rhythm of hPer1 expression as a result of cortisol stimulation” value [3] was “roughly 24 hour” and the “cycle of circadian rhythm of hBmal1 expression as a result of cortisol stimulation” value [4] was “roughly 24 hour”.

Source: patent US20140057979A1, “Expression Modulator For Clock Gene” (Shiseido Company, Ltd., priority 2012, published 2014)
